Measurements taken from patent US10973744B2, “Conditioner composition comprising a chelant” (The Procter & Gamble Company, priority 2016, dated 2021).

Test: Measurement of copper on hair after shampoo / rinse-off conditioner / leave-on treatment regimen (ICP-OES)
Details: after 20 regimen cycles, compared to control conditioning shampoo/control rinse-off conditioner
Method: All testing are performed on colored hair switches (see Method of Measurement of copper on hair below) weighing approximately 4.0 grams and having a length of approximately 6 inches. The hair switches are commercially available from IHIP (International Hair Importers). Three hair switches per shampoo composition are used. An amount of […] of shampoo is spread via a syringe onto separate hair switch. That is, the dosage is 0.10 g of shampoo per g of hair. Each application consists of adding shampoo to the hair, milking for 30 seconds followed by rinsing for 30 seconds. Shampoo is then reapplied (0.1 g/g), milked for 30 seconds and rinsed for 30 seconds. Excess water is squeezed from the hair switches and left to air dry or treated with a rinse-off conditioner and/or a leave-on treatment composition. […]
In several cases during this inventigation, the rinse-off conditioner treatment is followed by hair treatment with a leave-on treatment composition. Specifically, the appropriate quantity of the leave-on treatment composition is uniformely sprayed or spread onto separate hair switches (dosage of 0.10 g of solution per g of hair). […]
Samples of 100 mg of hair were digested overnight with 2 ml of high purity concentrated nitric acid. […] Copper content of the hair switches was determined by inductively coupled plasma atomic spectroscopy (ICP-OES)). For each leg, 3 different samples were analyzed. […]

NCCNCCNCCN [2,3-Triethylenetetramine]
Removal of copper from hair (in words): effective removal of copper from hair
